Patent publication US20220402862A1 (Intellia Therapeutics, Inc., priority 2019, published 2022)
Values joined by “and” are separate entries in the source; they are usually repeats but may differ in a detail not shown here. Identical values can stand only once.

What was measured:
Transthyretin (TTR) = test: Serum TTR ELISA in mice after LNP dosing; type: in vivo, CD-1 female mice
Method in brief: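 Serum mouse TTR was quantified by ELISA at 10,000-fold dilution for 0.1 mg/kg and 10,000/2,500-fold for 0.3 mg/kg. Samples came from female CD-1 mice (6–10 weeks) killed 6 or 7 days after a single intravenous LNP dose, usually 0.1 mg/kg.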

mouse TTR gene = test: In vivo editing in mouse liver, sgRNA targeting TTR (G282 or G502), % indel by NGS; parameters: species or system CD-1 female mice
Experimental: CD-1 female mice ranging from 6-10 weeks of age were used in each study. Animals were weighed and grouped according to body weight for preparing dosing solutions based on group average weight. LNPs were dosed via the lateral tail vein in a volume of 0.2 mL per animal (approximately 10 mL per kilogram body weight). The animals were periodically observed for adverse effects for at least 24 hours post dose. For studies measuring in vivo editing in liver, CD-1 female mice were dosed at 0.1 mg/kg unless otherwise noted. Animals were euthanized at 6 or 7 days by ex sanguination via cardiac puncture under isoflurane anesthesia. Liver tissue was collected from each animal for DNA extraction and analysis. Blood was collected into serum separator tubes or into tubes containing buffered sodium citrate for plasma as described herein. Cohorts of mice were measured for editing by Next-Generation Sequencing (NGS).
In brief, to quantitatively determine the efficiency of editing at the target location in the genome, genomic DNA was isolated and deep sequencing was utilized to identify the presence of insertions and deletions introduced by gene editing.
PCR primers were designed around the target site (e.g., within B2M), and the genomic area of interest was amplified. Additional PCR was performed according to the manufacturer's protocols (Illumina) to add the necessary chemistry for sequencing. The amplicons were sequenced on an Illumina MiSeq instrument. The reads were aligned to the mouse or rat reference genome (e.g., GRCm38) after eliminating those having low quality scores. The resulting files containing the reads were mapped to the reference genome (BAM files), where reads that overlapped the target region of interest were selected and the number of wild type reads versus the number of reads which contain an insertion, substitution, or deletion was calculated.
The editing percentage (e.g., the “indel efficiency” or “percent indels”) was defined as the total number of sequence reads with insertions or deletions over the total number of sequence reads, including wild type.
We assessed in vivo editing efficiency for materials delivered with formulations including various amine lipid compounds. Editing was measured using either G282 (SEQ ID No: 1) which targets the mouse TTR gene or G650 (SEQ ID No. 2) which targets the mouse B2M gene. Lipids described above were assessed for efficacy through in vivo editing experiments. LNPs were formulated at a 1:1 or 1:1.3 w/w ratio of sgRNA to Cas9 mRNA, and at an N/P ratio of about 6. Molar concentrations of lipids in the lipid component of the LNPs are used at mol % amine lipid/DSPC/cholesterol/PEG-2k-DMG of 50/9/38/3. The final LNPs were characterized to determine the encapsulation efficiency, polydispersity index, and average particle size according to the analytical methods provided above. Analysis of average particle size, polydispersity (PDI), total RNA content and encapsulation efficiency of RNA are shown in Table 2.
To assess whether the editing was dose responsive, experiments were performed in vivo at various LNP dose levels. Cas9 mRNA of Example 120 was formulated as LNPs with an sgRNA targeting TTR (G282, SEQ ID NO: 1; or G502, SEQ ID NO: 4).
We assessed in vivo delivery by measuring editing efficiency for materials delivered with formulations that included various amine lipid compounds. Cas9 mRNA (SEQ ID NO: 6) was formulated as LNPs with an sgRNA targetting the TTR mouse gene (SEQ ID NO: 4). LNPs were formulated at a 1:2 w/w ratio of sgRNA to Cas9 mRNA, and at an N/P ratio of about 6. Molar concentrations of lipids in the lipid component of the LNPs are used at mol % amine lipid/DSPC/cholesterol/PEG-2k-DMG of 50/9/38/3. The final LNPs compositions were characterized and analyzed as described in Example 120. Analysis of average particle size, polydispersity (PDI), total RNA content and encapsulation efficiency of RNA are shown in Table 6.

[1] = pKa measurement of unformulated amine lipid (fluorescence, method of Jayaraman et al.); type: physicochemical; settings: 100 μM in 0.1 M phosphate buffer, pH 2.0-12.0
Experimental: The pKa of each amine lipid was determined according to the method in Jayaraman, et al. (Angewandte Chemie, 2012) with the following adaptations. […] Lipid was diluted to 100 μM in 0.1 M phosphate buffer (Boston Bioproducts) where the pH ranged from 2.0-12.0. Fluorescence intensity was measured using excitation and emission wavelengths of 321 nm and 448 nm.

[2] = Dynamic light scattering of LNPs: Z-average diameter, number average diameter, PDI; type: physicochemical; settings: LNP
Method in brief: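 Values reported are the Z-average (intensity-weighted mean size), the number-average diameter and the PDI (spread of sizes, 0 = fully uniform). All three came from dynamic light scattering of LNP preparations after dilution in PBS.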

[3] = RNA encapsulation efficiency of LNPs (Ribogreen fluorescence assay); type: physicochemical; settings: LNP; for Encapsulation (%): sg:mRNA 1:1, N/P about 6, amine lipid/DSPC/cholesterol/PEG-2k-DMG 50/9/38/3, Table 2, Experiments 2-20
Method in brief: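 Encapsulation efficiency is (Total RNA − Free RNA)/Total RNA. Free RNA was quantified by RiboGreen fluorescence (488/525 nm, ~10 min, RT, dark) in plain TE buffer; total RNA was quantified after LNP lysis with 0.2% Triton X-100, both against RNA standard curves.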

[4] = mouse, LNP i.v. 0.1 mg/kg, guide G282, Experiments 101-103
[5] = mouse, LNP i.v. 0.1 mg/kg, guide G282, Experiments 101-103, relative to TSS control
[6] = mouse, LNP i.v. 0.3 mg/kg, guide G282, Experiments 101-103
[7] = mouse, LNP i.v. 0.3 mg/kg, guide G282, Experiments 101-103, relative to TSS control
[8] = LNP i.v. 0.1 mg/kg, guide G282, Experiments 101-103
[9] = LNP i.v. 0.3 mg/kg, guide G282, Experiments 101-103
[10] = sg:mRNA 1:1, N/P 6.0, 50/9/38/3, Table 4, Experiments 101-104
[11] = sg:mRNA 1:1, N/P about 6, 50/9/38/3, Table 2, Experiments 2-20
[12] = sg:mRNA 1:2, N/P 6.0, 50/9/38/3, Table 4, Experiment 105
[13] = mouse serum TTR relative to TSS control, guide G502, i.v. 0.1 mg/kg
[14] = mouse serum, guide G502, i.v. 0.1 mg/kg
[15] = guide G502, i.v. 0.1 mg/kg, sgRNA:Cas9 mRNA 1:2 w/w, experiments 106, 107
[16] = sg:mRNA 1:2, N/P about 6, 50/9/38/3, Table 6, Experiments 106-107
[17] = sg:mRNA 1:2, N/P about 6, 50/9/38/3, TTR sgRNA (SEQ ID NO: 4), Table 6, Experiments 106-107

Structure (SMILES) | pKa [1] | Number mean (nm) [2, 11] | Z-avg (nm) [2, 11] | Encapsulation (%) [3] | Serum TTR % TSS (Transthyretin (TTR); [13]) | Serum TTR (Transthyretin (TTR); [14]) | Editing Mean % Indel (mouse TTR gene; [15]) | Number mean (nm) [2, 16] | PDI [2, 16] | Z-avg (nm) [2, 16] | % E [3, 17] | other results
CCCCC/C=C\C/C=C\CCCCCCCC(=O)OCC(COC(=O)CCC(OCCCCCCCC)OCCCCCCCC)COC(=O)C1CCN(C)CC1 (stereo not drawn) [Compound 31, 3-((4,4-bis(octyloxy)butanoyl)oxy)-2-((((9Z,12Z)-octadeca-9,12-dienoyl)oxy)methyl)propyl 1-methylpiperidine-4-carboxylate] | 7.31 | 58.67 nm and 59.35 nm | 75.11 nm and 73.65 nm | 98% and 99% | – | – | – | – | – | – | – | Serum TTR (Transthyretin (TTR); [4]): 976 µg/mL; Serum TTR % TSS (Transthyretin (TTR); [5]): 71%; Serum TTR (Transthyretin (TTR); [6]): 226 µg/mL; Serum TTR % TSS (Transthyretin (TTR); [7]): 17%; Editing Mean % Indel (mouse TTR gene; [8]): 13.5%; Editing Mean % Indel (mouse TTR gene; [9]): 50.7%; Number mean (nm) [2, 10]: 61 nm; PDI [2, 10]: 0.04; Z-avg (nm) [2, 10]: 76 nm; % E [3, 10]: 99%
CCCCCC/C=C\COC(=O)CCCCCCCC(=O)OCC(COC(=O)CCC(OCCCCCCCC)OCCCCCCCC)COC(=O)OCCCN(CC)CC (stereo not drawn) [Compound 54, (Z)-1-(3-((4,4-bis(octyloxy)butanoyl)oxy)-2-((((3-(diethylamino)propoxy)carbonyl)oxy)methyl)propyl) 9-(non-2-en-1-yl) nonanedioate] | 6.4 | 76.95 nm and 71.8 nm and 78.39 nm | 95.76 nm and 89.8 nm and 99.71 nm | 98% | – | – | – | – | – | – | – | Serum TTR (Transthyretin (TTR); [4]): 449 µg/mL; Serum TTR % TSS (Transthyretin (TTR); [5]): 49%; Serum TTR (Transthyretin (TTR); [6]): 97 µg/mL; Serum TTR % TSS (Transthyretin (TTR); [7]): 11%; Editing Mean % Indel (mouse TTR gene; [8]): 28.3%; Editing Mean % Indel (mouse TTR gene; [9]): 64.8%; Number mean (nm) [2, 10]: 77.96 nm; PDI [2, 10]: 0.032; Z-avg (nm) [2, 10]: 96.98 nm; % E [3, 10]: 98%
CCCCCCCCOC(CCC(=O)OCC(COC(=O)CCCCCCCCCCC(=O)OCCCCCCC)COC(=O)OCCCN(CC)CC)OCCCCCCCC (stereo not drawn) [Compound 61, 1-(3-((4,4-bis(octyloxy)butanoyl)oxy)-2-((((3-(diethylamino)propoxy)carbonyl)oxy)methyl)propyl) 12-heptyl dodecanedioate] | 6.29 | 72 nm | 87.26 nm | 97% | – | – | – | – | – | – | – | Serum TTR (Transthyretin (TTR); mouse, LNP i.v. 0.03 mg/kg, guide G502, Experiment 105): 711 µg/mL; Serum TTR % TSS (Transthyretin (TTR); mouse, LNP i.v. 0.03 mg/kg, guide G502, Experiment 105, relative to TSS control): 65%; Serum TTR (Transthyretin (TTR); mouse, LNP i.v. 0.1 mg/kg, guide G502, Experiment 105): 472 µg/mL; Serum TTR % TSS (Transthyretin (TTR); mouse, LNP i.v. 0.1 mg/kg, guide G502, Experiment 105, relative to TSS control): 43%; Editing Mean % Indel (mouse TTR gene; LNP i.v. 0.03 mg/kg, guide G502, Experiment 105): 7.78%; Editing Mean % Indel (mouse TTR gene; LNP i.v. 0.1 mg/kg, guide G502, Experiment 105): 36.06%; PDI [2, 11]: 0.018; Number mean (nm) [2, 12]: 79.73 nm; PDI [2, 12]: 0.033; Z-avg (nm) [2, 12]: 99.25 nm; % E [3, 12]: 98%
CCCCC/C=C\C/C=C\CCCCCCCC(=O)OCC(COC(=O)CCC(OCCCCCCCC)OCCCCCCCC)COC(=O)NCCN1CCCC1 (stereo not drawn) [Compound 100, 3-((4,4-bis(octyloxy)butanoyl)oxy)-2-((((2-(pyrrolidin-1-yl)ethyl)carbamoyl)oxy)methyl)propyl (9Z,12Z)-octadeca-9,12-dienoate] | 7.2 | – | – | – | 81.3% | 1017.4 µg/mL | 12% | 70 nm | 0.04 | 89 nm | 99% | –
CCCCC/C=C\C/C=C\CCCCCCCC(=O)OCC(COC(=O)CCC(OCCCCCCCC)OCCCCCCCC)COC(=O)NCCN1CCCCC1 (stereo not drawn) [Compound 101, 3-((4,4-bis(octyloxy)butanoyl)oxy)-2-((((2-(piperidin-1-yl)ethyl)carbamoyl)oxy)methyl)propyl (9Z,12Z)-octadeca-9,12-dienoate] | 6.4 | – | – | – | 56.1% | 655.8 µg/mL | 25.9% | 58 nm | 0.04 | 73 nm | 99% | –
CCCCC/C=C\C/C=C\CCCCCCCC(=O)OCC(COC(=O)CCC(OCCCCCCCC)OCCCCCCCC)COC(=O)OCCCN1CCCCC1 (stereo not drawn) [Compound 102, 3-((4,4-bis(octyloxy)butanoyl)oxy)-2-((((3-(piperidin-1-yl)propoxy)carbonyl)oxy)methyl)propyl (9Z,12Z)-octadeca-9,12-dienoate] | 5.7 | – | – | – | 62.3% | 728.1 µg/mL | 19.6% | 57 nm | 0.02 | 71 nm | 98% | –
CCCCC/C=C\C/C=C\CCCCCCCC(=O)OCC(COC(=O)CCC(OCCCCCCCC)OCCCCCCCC)COC(=O)NCCN1CCCCCC1 (stereo not drawn) [Compound 103, 3-(((2-(azepan-1-yl)ethyl)carbamoyl)oxy)-2-(((4,4-bis(octyloxy)butanoyl)oxy)methyl)propyl (9Z,12Z)-octadeca-9,12-dienoate] | 7 | – | – | – | 89.3% | 1043.8 µg/mL | 4.2% | 50 nm | 0.05 | 65 nm | 99% | –
